Results from patent publication US20020151588A1, “Dissociated glucocorticoid receptor antagonists for the treatment of glucocorticoid associated side effects” (priority 2000, published 2002).
pIC50: −log10 of the molar value. Where “and” joins values, the source holds several entries; their conditions need not be identical. Identical values can stand only once.

Experiments:
[1] = system: tyrosine aminotransferase (TAT) in mice liver; assay: TAT induction in mice liver; type: in vivo; details: for TAT-induction ± S.E.M.: mice liver, 8 hours after administration
Protocol: (§1) Female albino mice (Han:NMRI) obtained form Harlan and weighing about 20-25 g were used. The animals were provided with standardized pellet diet (Altromin 8013) and had tap water freely available. The animals were accommodated in a climate room with a 12-hour light/dark cycle and kept in groups.
(§2) All test compounds were administered orally (0.2 ml/10 g body weight (bw) ) in a dose of 100 mg/kg p.o. The compounds were “dissolved” in 0.2% hydroxypropylmethylcellulose and olive oil mixed 1:1 (v/v).
Eight hours after compounds were administered the animals were killed and a punch (diameter 8 mm) was taken from the liver and immediately frozen in liquid nitrogen. The weighed liver punches were thawed for 3 minutes and homogenized after the addition 1 ml of phosphate buffer (pH 7.6) using a tissue homogenizer as described above. After centrifugation the supernatants were frozen at −20° C. until processing. For processing the samples were thawed and protein was determined using a kit employing 96 well microtiterplates commercially available from Fa. Pierce (No 23225). The activity of tyrosineaminotransferase (TAT) was determined in the supernatant, which was diluted 1:100 in phosphate buffer. The reaction is started by the addition of tyrosine in pyrodoxal-5-phosphate and α ketoglutaric acid at pH 7.6 and incubated for 30 minutes at 37° C. The reaction is stopped by the addition of 10 M KOH and a further incubation of 30 minutes is allowed for the formation of p-hydroxy-benzylaldehyde, which can be measured at 492 nm using a microplate reader. The values (optical densities) are calculated with respect to the protein concentration (O.D./mg protein) (Table 1a and b).

[2] = system: LPS-induced IL-8 secretion in U-937 cells; assay: GR-mediated inhibition of LPS-induced IL-8 secretion in U-937 cells; type: cell-based, human; details: 1 μg/ml LPS
Protocol: U-937 cells were incubated for 4 days in RPM11640 medium containing 10% CCS (charcoal treated calf serum). […] Control cells were treated with 0.1% DMSO.
Eighteen hours later the IL-8 concentration in the cell supernatant was measured by ELISA, using the “OptEIA human IL-8 set” (Pharmingen, Cat.No. 2654KI) (FIG. 5a).
The steroidal not dissociated GR/PR antagonist RU486 was used as control (FIG. 5b).

[3] = system: ICAM-promoter in HeLa cells; assay: Inhibition of TNF-α induced activation of the ICAM-promoter (luciferase) in HeLa cells; type: cell-based, human; details: 20 ng/ml TNF-α
Protocol: HeLa cells were stably co-transfected with a construct containing a 1.3 kb fragment of the human ICAM-promoter (−1353 to −9 relative to the transcription start site, cloned in front of the luciferase gene and the pcDNA3.1 plasmid (Invitrogen) which constitutively express the resistance for the antibioticum geneticin. Clones with best induction of the ICAM-promoter were selected and used for further experiments. Cells were transferred to 96 well plates (20,000 cells/100 μl/well) in DMEM medium supplemented with 3% CCS. On the following day the activation of the ICAM-promoter was induced by addition of 20 ng/ml recombinant TNF-α (R&D System, Cat. No. 210-TA). […] Control cells were treated with DMSO only. Twenty four hours later the cells were lysed with cell lysis reagent (Promega, Cat. No. E1531), luciferase assay reagent (Promega, Cat. No. E1501) was added and flash luminescence was measured using a BMG luminometer (FIG. 6a).
The steroidal not dissociated GR/PR antagonist RU486 was used as control (FIG. 6b).

recombinant human GR = recombinant human GR (Homo sapiens, UniProt P04150); assay: GR Competitive Binding Assay; details: after correction for compound determined to be in solution by HPLC analysis; read-out: IC50, competition with [6,7-3H(N)]-dexamethasone for binding to GR
recombinant human GR, sequence (P04150 whole entry, other chains not shown): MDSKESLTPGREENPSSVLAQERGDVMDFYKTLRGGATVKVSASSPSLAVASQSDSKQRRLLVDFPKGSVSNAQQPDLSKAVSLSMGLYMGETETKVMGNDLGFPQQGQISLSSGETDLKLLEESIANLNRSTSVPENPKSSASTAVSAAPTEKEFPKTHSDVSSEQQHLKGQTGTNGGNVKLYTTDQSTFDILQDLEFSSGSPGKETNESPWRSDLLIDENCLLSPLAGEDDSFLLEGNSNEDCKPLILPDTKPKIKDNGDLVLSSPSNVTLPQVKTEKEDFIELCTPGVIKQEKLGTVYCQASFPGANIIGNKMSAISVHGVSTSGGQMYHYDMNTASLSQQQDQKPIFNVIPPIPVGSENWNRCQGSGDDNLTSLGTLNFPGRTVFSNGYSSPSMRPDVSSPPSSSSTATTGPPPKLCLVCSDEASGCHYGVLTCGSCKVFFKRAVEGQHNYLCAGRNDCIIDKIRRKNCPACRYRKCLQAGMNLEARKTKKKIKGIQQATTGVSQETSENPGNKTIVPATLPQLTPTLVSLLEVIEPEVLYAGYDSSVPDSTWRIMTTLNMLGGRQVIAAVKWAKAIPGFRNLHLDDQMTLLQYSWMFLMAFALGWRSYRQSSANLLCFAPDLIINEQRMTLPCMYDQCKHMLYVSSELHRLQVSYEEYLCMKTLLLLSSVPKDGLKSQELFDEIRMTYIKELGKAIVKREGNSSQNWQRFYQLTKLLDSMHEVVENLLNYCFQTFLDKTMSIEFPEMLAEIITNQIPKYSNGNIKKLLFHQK
Protocol: All procedures were performed at 4° C.
Test compounds were dissolved to 1 mM in neat DMSO and then further diluted to 10×assay concentration in assay buffer supplemented with 10% v/v DMSO.

[4] = system: MMTV-(mouse mammary tumor virus) promoter in HeLa cells; assay: Stimulation of MMTV promoter (luciferase) in HeLa cells; type: cell-based
Protocol: HeLa cells stably co-transfected with the pHHLuc-construct containing a fragment of the MMTV-LTR (−200 to +100 relative to the transcription start site) cloned in front of the luciferase gene and the pcDNA3.1 plasmid (Invitrogen) constitutively expressing the resistance for the antibioticum geneticin. Clones with best induction of the MMTV-promoter were selected and used for further experiments.
Cells were cultured overnight in DMEM medium w/o phenol red supplemented with 3% CCS (charcoal treated calf serum) and then transferred to 96 well plates (20,000 cells/100 μl/well). […] Control cells were treated with DMSO only. Twenty four hours later the cells were lysed with cell lysis reagent (Promega, Cat. No. E1531), luciferase assay reagent (Promega, Cat. No. E1501) was added and the flash luminescence was measured using a BMG luminometer (FIG. 4a).
The steroidal non-selective GR/PR antagonist RU486 was used as control (FIG. 4b).

[5] = system: tyrosine aminotransferase (TAT) in rat hepatoma cells; assay: Induction of tyrosine aminotransferase (TAT) in H4-II-E-C3 rat hepatoma cells; type: cell-based
Protocol: H4-II-E-C3 rat hepatoma cells were incubated overnight in 96 well plates (20,000 cells/200 μl/well) in EMEM medium containing 10% heat inactivated FBS (fetal bovine serum). […] Control cells were treated with 0.1% DMSO. After 18 hours, the cells were lysed in a buffer containing 0.1% Triton X-100 and the TAT activity was measured in a photometric assay using tyrosine and -keto g lutarate as substrates (FIG. 3a).
The steroidal not dissociated GR/PR antagonist RU486 was used as control (FIG. 3b).

[6] = system: PMA-induced neutrophils influx in mice ear; assay: PMA-induced ear edema in mice (myeloperoxidase); type: in vivo; details: for Myeloperoxidase (treated-untreated ear) ± S.E.M.: 24 hours after PMA
Protocol: as §1, §2
Mice were lightly anaesthetized by ether and 50 ng PMA (5 μl) were applied to each side of the left ear. […] The animals were sacrificed by ether 24 hours later, and a biopsy (diameter 8 mm) was punched out from both ears to assess an increase of neutrophils in the left ear compared with the right ear. Tissue samples were homogenized in 1 ml 0.5% HTAB (Hexadecyl-trimethyl-ammonium-bromide; Sigma H-5882; dissolved in 0.05 M phosphate buffer, pH 6.0) using a tissue homogenizer (IKA-Ultraturrax T5; Janke & Kunkel, Staufen/Breisgau) at 30000 RPM for 15 seconds under cooling. After centrifugation (16000 g, 5 min) the supernatants were frozen until processing for myeloperoxidase (MPO). Determination in the supernatants for MPO, a neutrophil marker enzyme, served as a quantitative index for the neutrophil accumulation. MPO was determined spectrophotometrically at 450 nm using a microplate version of the method of Bradley (1982) and microplate reader (Vmax; Molecular Devices, Palo Alto) suitable for kinetic measurements. The values are expressed as increase in milli optical densities per min (m O.D./min) (Table 1a and b).

[7] = system: croton-oil induced ear edema, carrageenan-induced paw edema; systemic side-effects of glucocorticoids; assay: In vivo co-administration with dexamethasone or prednisolone in inflammation models
[8] = co-administered with prednisolone, each 100 mg/kg p.o.

SMILES	antagonism of the prednisolone-induced induction of tyrosine aminotransferase in liver ([1]; 100 mg/kg p.o., mice)	TAT-induction ± S.E.M. [1, 8] [O.D./mg protein]	TAT-induction ± S.E.M. ([1]; compound alone 100 mg/kg p.o.)	agonistic activity in GR-mediated inhibition of LPS-induced IL-8 secretion ([2]; 18 hours)	antagonistic activity in GR-mediated inhibition of LPS-induced IL-8 secretion ([2]; IL-8 secretion inhibited with 3e-8 mol/l dexamethasone)	agonistic activity in inhibition of TNF-α induced activation of the ICAM-promoter ([3]; 24 hours)	antagonistic activity in inhibition of TNF-α induced activation of the ICAM-promoter ([3]; inhibited with 3e-8 mol/l dexamethasone)	pIC50 (recombinant human GR)	antagonistic activity in stimulation of MMTV promoter ([4]; HeLa cells pre-stimulated with 3e-8 mol/l dexamethasone)	agonistic activity in stimulation of MMTV promoter ([4]; HeLa cells, 24 hours)	antagonistic activity on dexamethasone-induced TAT-induction ([5]; rat hepatoma cells pre-stimulated with dexamethasone 3e-9 mol/l)	agonistic activity in induction of tyrosine aminotransferase (TAT) ([5]; rat hepatoma cells, 18 hours)	antagonism of the anti-inflammatory effect of prednisolone in the ear inflammation model ([6]; 100 mg/kg p.o.)	Myeloperoxidase (treated-untreated ear) ± S.E.M. [6, 8] [mO.D./min]	Myeloperoxidase (treated-untreated ear) ± S.E.M. ([6]; compound alone 100 mg/kg p.o.)	systemic side-effect of the glucocorticoids (TAT in liver, blood glucose, free fatty acids level, renal function) ([7]; co-administration with dexamethasone or prednisolone)	anti-inflammatory activity of the glucocorticoid on co-administration ([7]; co-administration with dexamethasone or prednisolone in inflammation models)
COc1cc(C(=O)c2cccc(C)c2)c(Oc2c(Br)cc(CC(=O)O)cc2Br)cc1C(C)C [EXRS1370SE]	can antagonize significantly	12.00 ± 1.26	3.85 ± 0.43 O.D./mg protein	no agonistic	no antagonistic activity	no agonistic	no antagonistic activity	7.16	antagonistic activity	no agonistic	shows antagonistic activity	does not show agonistic activity	does not significantly antagonize	140 ± 47	443 ± 90 mO.D./min	no/reduced a systemic side-effect	retain the anti-inflammatory activity of the glucocorticoid
CC#C[C@]1(O)CC[C@H]2[C@@H]3CCC4=CC(=O)CCC4=C3[C@@H](c3ccc(N(C)C)cc3)C[C@@]21C [Mifepristone, 11-[4-Dimethylamino]phenyl-17-hydroxy-17[1-propynyl]estra-4,9-dien-3-one]	–	6.60 ± 0.38	4.62 ± 0.36 O.D./mg protein	–	–	–	–	–	–	–	–	–	–	1565 ± 435	931 ± 261 mO.D./min	–	–
C[C@]12C=CC(=O)C=C1CC[C@@H]1[C@@H]2[C@@H](O)C[C@@]2(C)[C@H]1CC[C@]2(O)C(=O)CO [Prednisolone]	–	–	17.75 ± 0.86 O.D./mg protein and 13.45 ± 0.93 O.D./mg protein	–	–	–	–	–	–	–	–	–	–	–	48 ± 13 mO.D./min and 34 ± 17 mO.D./min	–	–
